Drawing on the NIST ThermoML archive (doi:10.1016/j.fluid.2006.07.015), this text covers activity coefficient for 25 compounds.

± gives the expanded uncertainty stated by the source.

The nature of the first data set: activity coefficient (dimensionless); of the first substance listed, at infinite dilution; xn = mol fraction of the nth substance listed. Particulars: 373.15 K; 101 kPa; Liquid; Chromatography; x1 = 0.
For the compound `C1=CCCC=C1` [1,3-cyclohexadiene] + CCCCCCCCCCCCCCCCCCC(CCCCCCCCCCCCCCCCCC)CCCCC(CCCCCCCCCCCCCCCCCC)CCCCCCCCCCCCCCCCCC, the activity coefficient was 0.251 ± 0.036. Same read-out and setting: in the case of `C1=CCC=CC1` [1,4-cyclohexadiene] + CCCCCCCCCCCCCCCCCCC(CCCCCCCCCCCCCCCCCC)CCCCC(CCCCCCCCCCCCCCCCCC)CCCCCCCCCCCCCCCCCC it was 0.242 ± 0.036; in that of `C=CCCCCCCCC` [1-decene] + CCCCCCCCCCCCCCCCCCC(CCCCCCCCCCCCCCCCCC)CCCCC(CCCCCCCCCCCCCCCCCC)CCCCCCCCCCCCCCCCCC, 0.411 ± 0.034. With `C#CCCCCCCCC` [1-decyne] + CCCCCCCCCCCCCCCCCCC(CCCCCCCCCCCCCCCCCC)CCCCC(CCCCCCCCCCCCCCCCCC)CCCCCCCCCCCCCCCCCC, the activity coefficient was found to be 0.442 ± 0.033.

On to `C=CCCCCCCCCCC` [1-dodecene] + CCCCCCCCCCCCCCCCCCC(CCCCCCCCCCCCCCCCCC)CCCCC(CCCCCCCCCCCCCCCCCC)CCCCCCCCCCCCCCCCCC, for which the activity coefficient stood at 0.447 ± 0.033. Same read-out and setting: next, `C=CCCCCC` [1-heptene] + CCCCCCCCCCCCCCCCCCC(CCCCCCCCCCCCCCCCCC)CCCCC(CCCCCCCCCCCCCCCCCC)CCCCCCCCCCCCCCCCCC: 0.354 ± 0.035; `C#CCCCCC` [1-heptyne] + CCCCCCCCCCCCCCCCCCC(CCCCCCCCCCCCCCCCCC)CCCCC(CCCCCCCCCCCCCCCCCC)CCCCCCCCCCCCCCCCCC: 0.411 ± 0.034.

Take `C#CCCCC` [1-hexyne] + CCCCCCCCCCCCCCCCCCC(CCCCCCCCCCCCCCCCCC)CCCCC(CCCCCCCCCCCCCCCCCC)CCCCCCCCCCCCCCCCCC: the activity coefficient is 0.39 ± 0.034.

On to `C=CCCCCCCC` [1-nonene] + CCCCCCCCCCCCCCCCCCC(CCCCCCCCCCCCCCCCCC)CCCCC(CCCCCCCCCCCCCCCCCC)CCCCCCCCCCCCCCCCCC, for which the activity coefficient turned out to be 0.392 ± 0.034. Same read-out and setting: in the case of `C#CCCCCCCC` [1-nonyne] + CCCCCCCCCCCCCCCCCCC(CCCCCCCCCCCCCCCCCC)CCCCC(CCCCCCCCCCCCCCCCCC)CCCCCCCCCCCCCCCCCC it was 0.445 ± 0.033; in that of `C#CCCCCCC` [1-octyne] + CCCCCCCCCCCCCCCCCCC(CCCCCCCCCCCCCCCCCC)CCCCC(CCCCCCCCCCCCCCCCCC)CCCCCCCCCCCCCCCCCC, 0.428 ± 0.034. Still for that read-out and setting: in the case of `C=CCCCCCCCCCCCC` [1-tetradecene] + CCCCCCCCCCCCCCCCCCC(CCCCCCCCCCCCCCCCCC)CCCCC(CCCCCCCCCCCCCCCCCC)CCCCCCCCCCCCCCCCCC it was 0.475 ± 0.033; in that of `C=CCCCCCCCCCCC` [1-tridecene] + CCCCCCCCCCCCCCCCCCC(CCCCCCCCCCCCCCCCCC)CCCCC(CCCCCCCCCCCCCCCCCC)CCCCCCCCCCCCCCCCCC, 0.467 ± 0.033; in that of `C=CCCCCCCCCC` [1-undecene] + CCCCCCCCCCCCCCCCCCC(CCCCCCCCCCCCCCCCCC)CCCCC(CCCCCCCCCCCCCCCCCC)CCCCCCCCCCCCCCCCCC, 0.435 ± 0.033. Same read-out and setting: next, `C1CCC2CCCC2C1` (stereo unspecified) [1H-indene, octahydro-] + CCCCCCCCCCCCCCCCCCC(CCCCCCCCCCCCCCCCCC)CCCCC(CCCCCCCCCCCCCCCCCC)CCCCCCCCCCCCCCCCCC: 0.26 ± 0.036. As to `CC(C)C(C)(C)C` [2,2,3-trimethylbutane] + CCCCCCCCCCCCCCCCCCC(CCCCCCCCCCCCCCCCCC)CCCCC(CCCCCCCCCCCCCCCCCC)CCCCCCCCCCCCCCCCCC, the activity coefficient came to 0.34 ± 0.035.

In the case of `CC(C)CC(C)(C)C` [2,2,4-trimethylpentane] + CCCCCCCCCCCCCCCCCCC(CCCCCCCCCCCCCCCCCC)CCCCC(CCCCCCCCCCCCCCCCCC)CCCCCCCCCCCCCCCCCC, the activity coefficient worked out at 0.397 ± 0.034. On the same count and under the same terms, in the case of `CC(C)C(C)C(C)C` [2,3,4-trimethylpentane] + CCCCCCCCCCCCCCCCCCC(CCCCCCCCCCCCCCCCCC)CCCCC(CCCCCCCCCCCCCCCCCC)CCCCCCCCCCCCCCCCCC it was 0.353 ± 0.035; in that of `CCC(C)CC(C)C` (stereo unspecified) [2,4-dimethylhexane] + CCCCCCCCCCCCCCCCCCC(CCCCCCCCCCCCCCCCCC)CCCCC(CCCCCCCCCCCCCCCCCC)CCCCCCCCCCCCCCCCCC, 0.394 ± 0.034. Take `CC(C)CC(C)C` [2,4-dimethylpentane] + CCCCCCCCCCCCCCCCCCC(CCCCCCCCCCCCCCCCCC)CCCCC(CCCCCCCCCCCCCCCCCC)CCCCCCCCCCCCCCCCCC: the activity coefficient was 0.391 ± 0.034. `CC#CCCC` [2-hexyne] + CCCCCCCCCCCCCCCCCCC(CCCCCCCCCCCCCCCCCC)CCCCC(CCCCCCCCCCCCCCCCCC)CCCCCCCCCCCCCCCCCC: the activity coefficient came out at 0.378 ± 0.034. Take `CCC(C)C(C)CC` (stereo unspecified) [3,4-dimethylhexane] + CCCCCCCCCCCCCCCCCCC(CCCCCCCCCCCCCCCCCC)CCCCC(CCCCCCCCCCCCCCCCCC)CCCCCCCCCCCCCCCCCC: the activity coefficient amounted to 0.353 ± 0.035. On to `CCC#CCC` [3-hexyne] + CCCCCCCCCCCCCCCCCCC(CCCCCCCCCCCCCCCCCC)CCCCC(CCCCCCCCCCCCCCCCCC)CCCCCCCCCCCCCCCCCC, for which the activity coefficient is 0.404 ± 0.034. Still for that read-out and setting: next, `CCCC#CCCC` [4-octyne] + CCCCCCCCCCCCCCCCCCC(CCCCCCCCCCCCCCCCCC)CCCCC(CCCCCCCCCCCCCCCCCC)CCCCCCCCCCCCCCCCCC: 0.436 ± 0.033; `C1C2CC3CC1CC(C2)C3` [adamantane] + CCCCCCCCCCCCCCCCCCC(CCCCCCCCCCCCCCCCCC)CCCCC(CCCCCCCCCCCCCCCCCC)CCCCCCCCCCCCCCCCCC: 0.337 ± 0.035.

Still in this data set, the particulars now being: 388.15 K; 101 kPa; Liquid; Chromatography; x1 = 0.
In the case of `C1=CCCC=C1` [1,3-cyclohexadiene] + CCCCCCCCCCCCCCCCCCC(CCCCCCCCCCCCCCCCCC)CCCCC(CCCCCCCCCCCCCCCCCC)CCCCCCCCCCCCCCCCCC, the activity coefficient amounted to 0.253 ± 0.036.

With `C1=CCC=CC1` [1,4-cyclohexadiene] + CCCCCCCCCCCCCCCCCCC(CCCCCCCCCCCCCCCCCC)CCCCC(CCCCCCCCCCCCCCCCCC)CCCCCCCCCCCCCCCCCC, the activity coefficient was found to be 0.244 ± 0.036. In the case of `C=CCCCCCCCC` [1-decene] + CCCCCCCCCCCCCCCCCCC(CCCCCCCCCCCCCCCCCC)CCCCC(CCCCCCCCCCCCCCCCCC)CCCCCCCCCCCCCCCCCC, the activity coefficient turned out to be 0.413 ± 0.034.

As to `C#CCCCCCCCC` [1-decyne] + CCCCCCCCCCCCCCCCCCC(CCCCCCCCCCCCCCCCCC)CCCCC(CCCCCCCCCCCCCCCCCC)CCCCCCCCCCCCCCCCCC, the activity coefficient was 0.446 ± 0.033. As for `C=CCCCCCCCCCC` [1-dodecene] + CCCCCCCCCCCCCCCCCCC(CCCCCCCCCCCCCCCCCC)CCCCC(CCCCCCCCCCCCCCCCCC)CCCCCCCCCCCCCCCCCC, the activity coefficient came out at 0.449 ± 0.033. Same read-out and setting: next, `C=CCCCCC` [1-heptene] + CCCCCCCCCCCCCCCCCCC(CCCCCCCCCCCCCCCCCC)CCCCC(CCCCCCCCCCCCCCCCCC)CCCCCCCCCCCCCCCCCC: 0.355 ± 0.035.
